Experimental data published in patent publication US20250368648A1, “MULTI-CYCLIC IRAK AND FLT3 INHIBITING COMPOUNDS AND USES THEREOF” (CHILDREN'S HOSPITAL MEDICAL CENTER, priority 2022, published 2025).

What was measured:
[1] = test system: MOLM14 (D835Y) cells; assay: Combination drug screening, Cell Titer Glo, MOLM14 (D835Y) cells; conditions: MOLM14(D835Y) cells; for Excess HSA Score: sum score, listed as compound in combination with Compound 106, 48 hours;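 as to all read-outs here: MOLM14 cells with FLT3 ITD plus D835Y, 500 per well in 1536-well plates, 10-point dose ranges, luminescent viability after 48 h, negative Excess HSA indicates synergy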
Protocol: Briefly, 10 nL of the compound shown below was acoustically dispensed into 1536-well white polystyrene tissue culture-treated plates with an Echo 550 acoustic liquid handler (Labcyte). Cells were then added to compound-containing plate at a density of 500-cells/well in 5 μL of medium. A 6-point or 10-point custom concentration range was used for all listed drugs. Plates were incubated for 48 hours at standard incubator conditions covered by a stainless steel gasketed lid to prevent evaporation. 48h post compound addition, 3 μL of Cell Titer Glo (Promega) were added to each well and plates were incubated at room temperature for 15 minutes with the stainless-steel lid in place. Luminescence readings were taken using a Viewlux imager (PerkinElmer) with a 2 second exposure time per plate.
A smaller concentration indicates higher potency to synergize with Venetoclax.
A smaller concentration indicates higher potency to synergize with azacitidine.
(§1) This is a cell line that has the FLT3 ITD mutation but also the FLT3 D835Y kinase domain mutation. […] Excess HSA is a measure of synergy vs. additivity or antagonism, wherein a negative Excess HSA value is indicative of synergy.

[2] = test system: THP1 cells; assay: Combination drug screening, Cell Titer Glo, THP1 cells; conditions: THP1 cells; for Excess HSA Score: sum score, 10 × 10 dataset, 48 hours;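 as to all read-outs here: luminescence read out in 1536-well plates seeded with 500 THP1 cells per well, each drug spanning a 10-point concentration range in the combination matrix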
Description: A smaller concentration indicates higher potency to synergize with Venetoclax. […] The numbers in each cell represent the % response (left) or the Delta Bliss score (right) at each given concentration combination.
A smaller concentration indicates higher potency to synergize with azacitidine. […] The numbers in each cell represent the % response (left) or the Delta Bliss score (right) at each given concentration combination.
as §1
Briefly, 10 nL of compounds were acoustically dispensed into 1536-well white polystyrene tissue culture-treated plates with an Echo 550 acoustic liquid handler (Labcyte). MOLM14 (D835Y) or THP1 cells were then added to compound-containing plates at a density of 500-cells/well in 5 μL of medium. A 10-point custom concentration range was used for all listed drugs. […] 48h post compound addition, 3 μL of Cell Titer Glo (Promega) were added to each well and plates were incubated at room temperature for 15 minutes with the stainless-steel lid in place. Luminescence readings were taken using a Viewlux imager (PerkinElmer) with a 2 second exposure time per plate.

[3] = combination therapy of CG-806 (a FLT3/BTK inhibitor) and the named additional compound, 110 × 10 dataset
[4] = combination therapy of Compound 45a and the named additional compound, 110 × 10 dataset
[5] = combination therapy of Compound 46a and the named additional compound, 110 × 10 dataset
[6] = combination therapy of Compound 47a and the named additional compound, 110 × 10 dataset
[7] = combination therapy of Compound 48a and the named additional compound, 110 × 10 dataset
[8] = combination therapy of Compound 102 and the named additional compound, 10 × 10 dataset
[9] = combination therapy of Gilteritinib (a FLT3/AXL inhibitor) and the named additional compound, 110 × 10 dataset
[10] = combination therapy of PF-06650833 (an IRAK4 selective inhibitor) and the named additional compound, 110 × 10 dataset
[11] = combination therapy of Quizartinib (a FLT3/Kit/PDGFRa inhibitor) and the named additional compound, 110 × 10 dataset
[12] = combination therapy of emavusertib (CA-4948) (a FLT3/IRAK4 inhibitor) and the named additional compound, 110 × 10 dataset
[13] = listed as compound in combination with CG-806 (a FLT3/BTK inhibitor)
[14] = listed as compound in combination with Compound 45a
[15] = listed as compound in combination with Compound 46a
[16] = listed as compound in combination with Compound 47a
[17] = listed as compound in combination with Compound 48a
[18] = listed as compound in combination with Compound 102
[19] = listed as compound in combination with Compound 106
[20] = listed as compound in combination with Gilteritinib (a FLT3/AXL inhibitor)
[21] = listed as compound in combination with PF-06650833 (an IRAK4 selective inhibitor)
[22] = listed as compound in combination with Quizartinib (a FLT3/Kit/PDGFRa inhibitor)
[23] = listed as compound in combination with emavusertib (CA-4948) (a FLT3/IRAK4 inhibitor)

| Structure (SMILES) | Sum Excess HSA Score [1, 3] | Sum Excess HSA Score [1, 4] | Sum Excess HSA Score [1, 5] | Sum Excess HSA Score [1, 6] | Sum Excess HSA Score [1, 7] | Sum Excess HSA Score [1, 8] | Sum Excess HSA Score [1, 9] | Sum Excess HSA Score [1, 10] | Sum Excess HSA Score [1, 11] | Sum Excess HSA Score [1, 12] | Excess HSA Score ([1]; 10 × 10 dataset) | Excess HSA Score [2, 13] | Excess HSA Score [2, 14] | Excess HSA Score [2, 15] | Excess HSA Score [2, 16] | Excess HSA Score [2, 17] | Excess HSA Score [2, 18] | Excess HSA Score [2, 19] | Excess HSA Score [2, 20] | Excess HSA Score [2, 21] | also measured |
| --- | --- | --- | --- | --- | --- | --- | --- | --- | --- | --- | --- | --- | --- | --- | --- | --- | --- | --- | --- | --- | --- |
| CC(C)Nc1cc(-c2c[nH]c(C(=O)N[C@H](CO)c3cccc(Cl)c3)c2)c(Cl)cn1 [Ulixertinib, ulixertinib] | 258.3 | 554.5 | −208.5 | 112.6 | −576.8 | −768.5 | 29.29 | 548.6 | 1180 | −352.8 | −71.53 | 518 | −14.94 | 260.4 | −663.3 | −24.53 | −301.9 | −630.1436 | 690.556 | 552.8 | Excess HSA Score [2, 22]: −530.2; Excess HSA Score [2, 23]: −230.3 |
| CC(C)[C@@H](CS(=O)(=O)C(C)C)N1C(=O)[C@@](C)(CC(=O)O)C[C@H](c2cccc(Cl)c2)[C@H]1c1ccc(Cl)cc1 [AMG-232, navtemadlin] | −536.7 | −165.5 | −654.7 | −325.2 | 224.1 | −197.3 | −113 | −1066 | −1109 | −373.7 | −640.2 | 917.1 | 441 | 229.7 | 364.2 | 420.6 | −171.2 | 394.3 | 24.49 | −179 | Excess HSA Score [2, 22]: −91.44; Excess HSA Score [2, 23]: 125.5 |
| CC(=O)c1c(C)c2cnc(Nc3ccc(N4CCNCC4)cn3)nc2n(C2CCCC2)c1=O [Palbociclib] | −246 | −715.3 | −844.8 | −616.3 | −583.3 | −537.2 | −576.9 | 94.98 | −1120 | −557.8 | −252.8 | −368.3 | −912.2 | −907.6 | −166.9 | −166.7 | −116.5 | −590.5 | −826.9 | −610 | Comments ([2]; combination with Quizartinib): Synergistic (a negative Excess HSA value is indicative of synergy); Excess HSA Score [2, 22]: −794.7; Excess HSA Score [2, 23]: 190.2 |
| COc1cc(F)ccc1-c1cc(Nc2cc(CS(C)(=N)=O)ccn2)ncc1F (single isomer, unassigned; (+)) [(+)-BAY-1251152, BAY1251152] | 1704 | −157.4 | −133.4976 | −727.7 | −215.2 | −20.6 | 362.2497 | −386 | −511.9 | 274 | −865.6 | −199.4 | −860.7 | −263.4 | −21.17 | 97 | −265.1 | −427.1 | −656.6 | −758.9 | Comments ([2]; combination with PF-06650833): Synergistic (a negative Excess HSA value is indicative of synergy); Excess HSA Score [2, 22]: 454.7; Excess HSA Score [2, 23]: −51.35 |
| N#Cc1ccnc(N2C(=O)CC[C@H]2C(=O)N(c2cncc(F)c2)[C@H](C(=O)NC2CC(F)(F)C2)c2ccccc2Cl)c1 [Ivosidenib, ivosidenib] | −199.6 | 259.8 | −118.7 | 218.5 | −299.6 | −713.3 | 347.6 | −172.4 | 244.1367 | 35.12 | 28.0568 | 93.96 | −296.7 | −42.9834 | −122.1 | −0.4511 | −215.7606 | 354.6 | 338 | −152.4 | Excess HSA Score [2, 22]: 177.8; Excess HSA Score [2, 23]: 285 |
| C[C@]12C=CC(=O)C=C1CC[C@@H]1[C@@H]2[C@@H](O)C[C@@]2(C)[C@H]1CC[C@]2(O)C(=O)CO [Prednisolone, prednisolone] | −218 | −106.5 | −52.71 | −58.8974 | −339.3 | −260.2 | −583.8 | −431.6 | 213.4 | −4.3456 | −5.273 | 335.9 | 438.5 | 174.9 | 134.6 | 511.8 | 26.91 | 274.3 | −110.9078 | −254.8 | Excess HSA Score [2, 22]: −81.1; Excess HSA Score [2, 23]: 70.05 |
